Tested on: 186277-243-T-J2-PDC complex spheroid viability
Test: Anticancer human tumor 186277-243-T-J2-PDC patient-derived colon adenocarcinoma cell line growth inhibition
Conditions: for IC50: curve of first compound; for viability, T/C: stronger effect = lower value
Summary of the method: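 Complex spheroids of tumor cells with HUVEC and human MSCs, exposed to iadademstat combined with other agents. Each agent tested in half-log steps from near clinical Cmax (else 10 microM top), DMSO ≤0.25%.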

[1] = second compound 0.1 µM, first compound 0.0316 µM
[2] = second compound 0.1 µM, first compound 0.1 µM
[3] = second compound 0.1 µM, first compound 0.316 µM
[4] = second compound 0.1 µM, first compound 1 µM
[5] = second compound 0.1 µM, first compound 3.16 µM
[6] = second compound 0.1 µM, first compound 10 µM
[7] = second compound 0.316 µM, first compound 0.0316 µM
[8] = second compound 0.316 µM, first compound 0.1 µM
[9] = second compound 0.316 µM, first compound 0.316 µM
[10] = second compound 0.316 µM, first compound 1 µM
[11] = second compound 0.316 µM, first compound 3.16 µM
[12] = second compound 0.316 µM, first compound 10 µM
[13] = second compound 1 µM, first compound 0.0316 µM
[14] = second compound 1 µM, first compound 0.1 µM
[15] = second compound 1 µM, first compound 0.316 µM
[16] = second compound 1 µM, first compound 1 µM
[17] = second compound 1 µM, first compound 3.16 µM
[18] = second compound 1 µM, first compound 10 µM
[19] = second compound 3.16 µM, first compound 0.0316 µM
[20] = second compound 3.16 µM, first compound 0.1 µM
[21] = second compound 3.16 µM, first compound 0.316 µM
[22] = second compound 3.16 µM, first compound 1 µM
[23] = second compound 3.16 µM, first compound 3.16 µM
[24] = second compound 3.16 µM, first compound 10 µM
[25] = second compound 10 µM, first compound 0.0316 µM
[26] = second compound 10 µM, first compound 0.1 µM
[27] = second compound 10 µM, first compound 0.316 µM
[28] = second compound 10 µM, first compound 1 µM
[29] = second compound 10 µM, first compound 3.16 µM
[30] = second compound 10 µM, first compound 10 µM
[31] = second compound 0.1 µM, first compound 0.00316 µM
[32] = second compound 0.1 µM, first compound 0.01 µM
[33] = second compound 0.316 µM, first compound 0.00316 µM
[34] = second compound 0.316 µM, first compound 0.01 µM
[35] = second compound 1 µM, first compound 0.00316 µM
[36] = second compound 1 µM, first compound 0.01 µM
[37] = second compound 3.16 µM, first compound 0.00316 µM
[38] = second compound 3.16 µM, first compound 0.01 µM
[39] = second compound 10 µM, first compound 0.00316 µM
[40] = second compound 10 µM, first compound 0.01 µM
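Further: 7 day exposure to compounds.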
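Wherever viability, T/C is given: 100% = DMSO vehicle control viability.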

Row | Compound | IC50 (second compound 0.1 µM) [nM] | IC50 (second compound 0.316 µM) [nM] | IC50 (second compound 1 µM) [nM] | IC50 (second compound 3.16 µM) [nM] | IC50 (second compound 10 µM) [nM] | viability, T/C [1] [%] | viability, T/C [2] [%] | viability, T/C [3] [%] | viability, T/C [4] [%] | viability, T/C [7] [%] | viability, T/C [8] [%] | viability, T/C [9] [%] | viability, T/C [10] [%] | viability, T/C [13] [%] | viability, T/C [14] [%] | viability, T/C [15] [%] | viability, T/C [16] [%] | viability, T/C [19] [%] | viability, T/C [20] [%] | viability, T/C [21] [%] | further results
1 | CC(C)c1c(-c2ccccc2)nc2c(C#N)c[nH]n2c1=O + NC1CCC(NC2CC2c2ccccc2)CC1 | > 10000 | > 10000 | > 10000 | > 10000 | > 10000 | 112 | 118 | 114 | 105 | 108 | 125 | 115 | 115 | 110 | 110 | 108 | 112 | 112 | 119 | 112 | viability, T/C [5]: 114%; viability, T/C [6]: 103%; viability, T/C [11]: 108%; viability, T/C [12]: 96.8%; viability, T/C [17]: 109%; viability, T/C [18]: 106%; viability, T/C [22]: 121%; viability, T/C [23]: 107%; viability, T/C [24]: 105%; viability, T/C [25]: 104%; viability, T/C [26]: 101%; viability, T/C [27]: 107%; viability, T/C [28]: 110%; viability, T/C [29]: 101%; viability, T/C [30]: 90.5%
2 | CC1COCCN1c1cc(-c2ccnn2C)c2ccnc(-c3ccn[nH]3)c2n1 (stereo not given) + NC1CCC(NC2CC2c2ccccc2)CC1 | 6.56 | 6.04 | 5.63 | 6.34 | 5.91 | 10.9 | 9.28 | 10 | 11.5 | 10.2 | 8.48 | 9.85 | 11.8 | 11.1 | 8.48 | 9.78 | 12.1 | 10.4 | 8.64 | 9.76 | viability, T/C [31]: 84.2%; viability, T/C [32]: 30.2%; viability, T/C [33]: 74.5%; viability, T/C [34]: 30.9%; viability, T/C [35]: 69.3%; viability, T/C [36]: 30.8%; viability, T/C [37]: 79.9%; viability, T/C [38]: 30.4%; viability, T/C [22]: 12%; viability, T/C [39]: 71.8%; viability, T/C [40]: 31.6%; viability, T/C [25]: 11%; viability, T/C [26]: 9.23%; viability, T/C [27]: 9.95%; viability, T/C [28]: 11.8%
3 | COc1ccc([C@@H](O)c2cc(-c3ncnc4cc(N5CCOCC5)ccc34)c(F)cc2Cl)nn1 + NC1CCC(NC2CC2c2ccccc2)CC1 | 4320 | 4430 | 4480 | 4300 | 3860 | 112 | 119 | 112 | 93.2 | 128 | 143 | 105 | 100 | 116 | 118 | 108 | 109 | 122 | 126 | 122 | viability, T/C [5]: 67.3%; viability, T/C [6]: 7%; viability, T/C [11]: 72.7%; viability, T/C [12]: 5.45%; viability, T/C [17]: 68.7%; viability, T/C [18]: 6.38%; viability, T/C [22]: 97.9%; viability, T/C [23]: 67.5%; viability, T/C [24]: 5.71%; viability, T/C [25]: 109%; viability, T/C [26]: 118%; viability, T/C [27]: 104%; viability, T/C [28]: 101%; viability, T/C [29]: 59%; viability, T/C [30]: 5.79%
4 | O=C(C=Cn1cnc(-c2cc(C(F)(F)F)cc(C(F)(F)F)c2)n1)NNc1cnccn1 + NC1CCC(NC2CC2c2ccccc2)CC1 | 16.6 | 18.6 | 17 | 18.2 | 16.8 | 19.7 | 5.58 | 3.09 | 0.76 | 20.9 | 10.7 | 3.03 | 2.56 | 19.3 | 7.63 | 3.96 | 0.59 | 19.2 | 5.56 | 5.32 | viability, T/C [31]: 98.7%; viability, T/C [32]: 73.7%; viability, T/C [33]: 98.9%; viability, T/C [34]: 83.6%; viability, T/C [35]: 91.4%; viability, T/C [36]: 76.3%; viability, T/C [37]: 121%; viability, T/C [38]: 83.3%; viability, T/C [22]: 0.63%; viability, T/C [39]: 131%; viability, T/C [40]: 76.8%; viability, T/C [25]: 17.3%; viability, T/C [26]: 4.86%; viability, T/C [27]: 3.33%; viability, T/C [28]: 0.57%

Source: PubChem BioAssay AID1918933 (Molecular Pharmacology Branch, DTP, NCI, 2023)
